# Measurements taken from patent US20060069132A1, “Azolecarboxamide herbicides” (priority 2004, published 2006).
# Experiments:
# Assay in all cases: Test E pre-/postemergence herbicide test
# broadleaf signalgrass = assay type: in vivo, Brachiaria platyphylla
# Outline: (§1)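 Ratings from 0 (no effect) to 100 (complete control) were assigned by visual comparison with untreated plants 12 to 14 days after application. Test chemicals, formulated with surfactant in a non-phytotoxic solvent blend, were applied to soil after planting or to foliage of 2–18 cm plants.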
# common groundsel = assay type: in vivo, Senecio vulgaris; details: scale 0 to 100
# Outline: as §1
# purple nutsedge = assay type: in vivo, Cyperus rotundus
# Outline: as §1
# bipinnate beggarticks = assay type: in vivo, Bidens bipinnata; details: scale 0 to 100
# Outline: as §1
# tropical spiderwort = assay type: in vivo, Commelina benghalensis
# Outline: as §1
# mustard = assay type: in vivo, Brassica nigra
# Outline: as §1
# quackgrass = assay type: in vivo, Elytrigia repens
# Outline: as §1
# johnsongrass = assay type: in vivo, Sorghum halepense
# Outline: as §1
# Surinam grass = assay type: in vivo, Urochloa decumbens
# Outline: as §1
# barnyardgrass = assay type: in vivo, Echinochloa crus-galli
# Outline: as §1
# hairy beggarticks = assay type: in vivo, Bidens radiata; details: Preemergence
# Outline: as §1
# common purslane = assay type: in vivo, Portulaca oleracea; details: scale 0 to 100
# Outline: as §1
# [1] = Postemergence, 500 g ai/ha, scale 0 to 100
# [2] = Postemergence, 250 g ai/ha, scale 0 to 100
# [3] = Preemergence, 62 g ai/ha, scale 0 to 100
# [4] = Preemergence, 125 g ai/ha, scale 0 to 100
# [5] = Preemergence, 250 g ai/ha, scale 0 (no effect) to 100 (complete control)
# [6] = Preemergence, 500 g ai/ha, scale 0 (no effect) to 100 (complete control)
# [7] = postemergence, 125 g ai/ha, scale 0 to 100
# [8] = postemergence, 62 g ai/ha, scale 0 to 100
structure (smiles),measurement,setting,value
CCn1nc(C2(C)CC2)cc1C(=O)Nc1cc(C(=O)N(C)C)ccc1F [Compound 299],"Plant response rating, Signalgrass",broadleaf signalgrass; [1],80
same,"Plant response rating, Signalgrass",broadleaf signalgrass; [2],70
same,"Plant response rating, Signalgrass",broadleaf signalgrass; [3],60
same,"Plant response rating, Signalgrass",broadleaf signalgrass; [4],80
same,"Plant response rating, Signalgrass",broadleaf signalgrass; [5],100
same,"Plant response rating, Signalgrass",broadleaf signalgrass; [6],100
same,"Plant response rating, Signalgrass",broadleaf signalgrass; [7],60
same,"Plant response rating, Signalgrass",broadleaf signalgrass; [8],20
same,"Plant response rating, Groundsel","common groundsel; Postemergence, 250 g ai/ha",100
same,"Plant response rating, Groundsel","common groundsel; postemergence, 125 g ai/ha",70
same,"Plant response rating, Nutsedge, Purple",purple nutsedge; [1],85
same,"Plant response rating, Nutsedge, Purple",purple nutsedge; [2],80
same,"Plant response rating, Nutsedge, Purple",purple nutsedge; [3],50
same,"Plant response rating, Nutsedge, Purple",purple nutsedge; [5],80
same,"Plant response rating, Nutsedge, Purple",purple nutsedge; [7],75
same,"Plant response rating, Nutsedge, Purple",purple nutsedge; [8],40
same,"Plant response rating, Beggarticks, Bip.","bipinnate beggarticks; Postemergence, 500 g ai/ha",80
same,"Plant response rating, Beggarticks, Bip.","bipinnate beggarticks; Postemergence, 250 g ai/ha",60
same,"Plant response rating, Beggarticks, Bip.","bipinnate beggarticks; postemergence, 125 g ai/ha",60
same,"Plant response rating, Beggarticks, Bip.","bipinnate beggarticks; postemergence, 62 g ai/ha",40
same,"Plant response rating, Spiderwort",tropical spiderwort; [1],90
same,"Plant response rating, Spiderwort",tropical spiderwort; [2],80
same,"Plant response rating, Spiderwort",tropical spiderwort; [4],85
same,"Plant response rating, Spiderwort",tropical spiderwort; [5],95
same,"Plant response rating, Spiderwort",tropical spiderwort; [6],100
same,"Plant response rating, Spiderwort",tropical spiderwort; [7],80
same,"Plant response rating, Spiderwort",tropical spiderwort; [8],10
same,"Plant response rating, Black Mustard",mustard; [1],100
same,"Plant response rating, Black Mustard",mustard; [2],100
same,"Plant response rating, Black Mustard",mustard; [3],100
same,"Plant response rating, Black Mustard",mustard; [4],100
same,"Plant response rating, Black Mustard",mustard; [5],100
same,"Plant response rating, Black Mustard",mustard; [6],95
same,"Plant response rating, Black Mustard",mustard; [7],100
same,"Plant response rating, Black Mustard",mustard; [8],100
same,"Plant response rating, Quackgrass",quackgrass; [1],100
same,"Plant response rating, Quackgrass",quackgrass; [2],85
same,"Plant response rating, Quackgrass",quackgrass; [3],80
same,"Plant response rating, Quackgrass",quackgrass; [4],80
same,"Plant response rating, Quackgrass",quackgrass; [5],95
same,"Plant response rating, Quackgrass",quackgrass; [6],100
same,"Plant response rating, Quackgrass",quackgrass; [7],75
same,"Plant response rating, Quackgrass",quackgrass; [8],20
same,"Plant response rating, Johnsongrass",johnsongrass; [1],85
same,"Plant response rating, Johnsongrass",johnsongrass; [2],85
same,"Plant response rating, Johnsongrass",johnsongrass; [3],40
same,"Plant response rating, Johnsongrass",johnsongrass; [4],60
same,"Plant response rating, Johnsongrass",johnsongrass; [5],80
same,"Plant response rating, Johnsongrass",johnsongrass; [6],100
same,"Plant response rating, Johnsongrass",johnsongrass; [7],80
same,"Plant response rating, Johnsongrass",johnsongrass; [8],60
same,"Plant response rating, Surinam Grass",Surinam grass; [1],90
same,"Plant response rating, Surinam Grass",Surinam grass; [2],75
same,"Plant response rating, Surinam Grass",Surinam grass; [4],95
same,"Plant response rating, Surinam Grass",Surinam grass; [6],100
same,"Plant response rating, Surinam Grass",Surinam grass; [7],75
same,"Plant response rating, Surinam Grass",Surinam grass; [8],70
same,"Plant response rating, Barnyardgrass",barnyardgrass; [1],80
same,"Plant response rating, Barnyardgrass",barnyardgrass; [2],70
same,"Plant response rating, Barnyardgrass",barnyardgrass; [3],60
same,"Plant response rating, Barnyardgrass",barnyardgrass; [4],85
same,"Plant response rating, Barnyardgrass",barnyardgrass; [5],95
same,"Plant response rating, Barnyardgrass",barnyardgrass; [6],100
same,"Plant response rating, Barnyardgrass",barnyardgrass; [7],70
same,"Plant response rating, Barnyardgrass",barnyardgrass; [8],40
same,"Plant response rating, Beggarticks, Hairy","hairy beggarticks; 62 g ai/ha, scale 0 to 100",50
same,"Plant response rating, Beggarticks, Hairy","hairy beggarticks; 125 g ai/ha, scale 0 to 100",100
same,"Plant response rating, Beggarticks, Hairy","hairy beggarticks; 250 g ai/ha, scale 0 (no effect) to 100 (complete control)",100
same,"Plant response rating, Beggarticks, Hairy","hairy beggarticks; 500 g ai/ha, scale 0 (no effect) to 100 (complete control)",100
same,"Plant response rating, Purslane","common purslane; Postemergence, 500 g ai/ha",100
same,"Plant response rating, Purslane","common purslane; Postemergence, 250 g ai/ha",80
same,"Plant response rating, Purslane","common purslane; postemergence, 125 g ai/ha",75
same,"Plant response rating, Purslane","common purslane; postemergence, 62 g ai/ha",70
